This is an account of results in US11918693B2, “Ibuprofen and acetaminophen tablet” (GlaxoSmithKline Consumer Healthcare Holdings (US) LLC, priority 2019, dated 2024).

For this series, the system named is patients with moderate-severe pain after ≥3 third molar extractions. Nature of the series: Study 2: phase 3 single-dose dental pain study, FDC vs IBU 250 mg, APAP 650 mg and placebo. Format: in vivo, human. The conditions noted are these: for Dizziness, treatment-emergent adverse event, n (%) / Flushing, treatment-emergent adverse event, n (%) / Headache, treatment-emergent adverse event, n (%) / Nausea, treatment-emergent adverse event, n (%) / Vomiting, treatment-emergent adverse event, n (%): Single-Dose Study 2; for SPID[11]0-8, Tx Diff vs. placebo: first treatment − second treatment, IBU 250 mg, APAP 650 mg; for Number (%) of patients with treatment failure: 12-hour study. As for the experimental part: Two Studies were performed, both single-center, phase 3, randomized, double-blind, parallel-group, placebo-controlled studies conducted in the United States. Study 2 was a single-dose study whereas Study 3 was a multiple-dose study. The studies were performed in compliance with the ethical principles originating in or derived from the Declaration of Helsinki and in compliance with all International Council for Harmonization Good Clinical Practice Guidelines, as well as all local regulatory requirements.
In Study 2, patients experiencing moderate-severe pain after ≥3 third molar extractions, with at least 2 with partial or complete mandibular impaction, were randomized 3:3:3:1 to receive single-dose FDC IBU/APAP 250 mg/500 mg (administered as 2 tablets of IBU 125 mg/APAP 250 mg), IBU 250 mg alone, APAP 650 mg alone, or placebo under double-blind conditions. Patients self-assessed pain severity and pain relief on site for 12 hours following administration of study medication.
Rescue medication consisted of tramadol hydrochloride 50-100 mg or codeine sulfate 15-60 mg, both immediate release, and patients could administer additional doses every 4-6 hours as needed up to the maximum labeled daily dose. Patients who took rescue medication remained at the study site for the full duration of each study (12 or 48 hours, respectively) and continued to perform assessments.
In both studies 2 and 3, patients were healthy adult males or females aged 18-40 years inclusive, who had undergone surgical extraction of ≥3 third molar teeth (≥2 must have been partial or complete bony mandibular impactions). Other key entry criteria included moderate-severe pain confirmed by a rating of ≥50 mm on a 100-mm visual analog pain severity rating (PSR) scale within approximately 5 hours after completion of surgery and use of only the following preoperative medications/anesthetics: topical benzocaine, a short-acting parenteral local anesthetic (mepivacaine or lidocaine) with or -without a vasoconstrictor and/or nitrous oxide, and no contraindications to the study or rescue medications.
In Study 2, enrolled patients received one of 4 treatments: 1) placebo (administered as 2 tablets); 2) FDC IBU/APAP 250 mg/500 mg (administered as 2 caplets of IBU 125 mg/APAP 250 mg); 3) IBU 250 mg (administered as 2 caplets of IBU 125 mg); or APAP 650 mg (administered as 2 tablets of APAP 325 mg).
At baseline, patients provided self-ratings of pain severity using categorical and numerical PSR scales. The categorical PSR used a 4-point scale (none, mild, moderate, severe), with each category assigned a number from 0 (none) to 3 (severe). Patients reporting at least moderate pain on the categorical PSR at baseline completed a 100-mm visual analog scale. A score of at least 50 mm confirmed eligibility for the study. Additionally, an 11-point (0-10; 0=none to 10=worst possible pain) numerical PSR scale was also used to assess pain.
Once study treatment was administered, the categorical PSR, numerical PSR, and a 5-point categorical pain relief rating scale (0=none, 1=a little, 2=some, 3=a lot, 4=complete) were obtained at predefined assessment times to assess pain and pain relief. In Study 2 (single-dose trial), these assessments were performed at 0.25, 0.5, 1, 1.5, 2, 3, 4, 5, 6, 7, 8, 9, 10, 11, and 12 hours post-treatment. In Study 3 (multiple-dose trial), these assessments were performed at the same time points as in Study 2 up to 12 hours and also at 16, 24, 32, 40, and 48 hours post-treatment Additional evaluations included patient assessments of time to first perceptible pain relief (TFPR), defined as the time that a patient first began to feel any pain-relieving effect whatsoever of the drug and time to meaningful pain relief (TMPR), defined as the time that a patient experienced pain relief that was meaningful to that individual, using the double-stopwatch method, see Mehlisch D R et al., 2010, ibid. […]

[1] abbreviates: IBU dose 250 mg, APAP dose 650 mg.
Where [2] appears, read: Study 2, single oral dose, IBU dose 250 mg, APAP dose 650 mg.

In the case of `CC(=O)Nc1ccc(O)cc1` [APAP, N-(4-hydroxyphenyl)acetamide], under setting [1], the “Dizziness, treatment-emergent adverse event, n (%)” value is 12 (7.3) n (%); the “Flushing, treatment-emergent adverse event, n (%)” value is reported as 1 (0.6) n (%); the “Headache, treatment-emergent adverse event, n (%)” value is given as 4 (2.4) n (%); the “Nausea, treatment-emergent adverse event, n (%)” value is 33 (20.0) n (%). In addition, the “Vomiting, treatment-emergent adverse event, n (%)” value under setting [1] was 20 (12.1) n (%). Moreover, where the note is “Study 2, LSM difference”, the “SPID[11]0-8, Tx Diff vs. placebo” value was found to be 15.32. For the same compound, under setting [2], the “Cumulative proportion of treatment failures after 8 hours” value is 51.5%, the “Median duration of pain relief (time to treatment failure)” value came to 449.0 min, the “Median time to onset of first perceptible pain relief (TFPR)” value came out at 24.2 min and the “Median time to onset of meaningful pain relief (TMPR)” value was found to be 56.6 min. In addition, under setting [2], the “Number (%) of patients with meaningful relief” value is given as 118 (71.5) n (%); the “Number (%) with event, first perceptible pain relief table” value is recorded as 118 (71.5) n (%); the “SPID[11]0-8, Mean (SD)” value is reported as 19.4 (20.0); the “SPID[11]0-8, Median” value was found to be 16.8. For the same compound, the “Number (%) of patients with treatment failure” value under setting [2] is listed as 105 (63.6) n (%).

On to `CC(C)Cc1ccc(C(C)C(=O)O)cc1` (centres unmarked) [IBU, 2-(4-isobutylphenyl) propionic acid], for which, under setting [1], the “Dizziness, treatment-emergent adverse event, n (%)” value is recorded as 6 (3.4) n (%); the “Flushing, treatment-emergent adverse event, n (%)” value is on record as 2 (1.1) n (%); the “Headache, treatment-emergent adverse event, n (%)” value is listed as 3 (1.7) n (%); the “Nausea, treatment-emergent adverse event, n (%)” value is 24 (13.7) n (%). For the same compound, the “Vomiting, treatment-emergent adverse event, n (%)” value under setting [1] is 15 (8.6) n (%). The “SPID[11]0-8, Tx Diff vs. placebo” value (Study 2, LSM difference) came to 24.42. The “SPID[11]0-8, Tx Diff vs. APAP” value (Study 2, LSM difference, comparator APAP 650 mg, IBU dose 250 mg) came out at 9.10. Moreover, under setting [2], the “Cumulative proportion of treatment failures after 8 hours” value stood at 33.1%, the “Median duration of pain relief (median time to treatment failure)” value worked out at 10.1 h, the “Median duration of pain relief (time to treatment failure)” value amounted to 608.5 min and the “Median time to onset of first perceptible pain relief (TFPR)” value was determined as 24.6 min. Further, under setting [2], the “Median time to onset of meaningful pain relief (TMPR)” value stood at 65.9 min; the “Number (%) of patients with meaningful relief” value is 139 (79.4) n (%); the “Number (%) with event, first perceptible pain relief table” value was 139 (79.4) n (%); the “SPID[11]0-8, Mean (SD)” value is 28.9 (20.5). Besides, under setting [2], the “SPID[11]0-8, Median” value came to 30.5 and the “Number (%) of patients with treatment failure” value is listed as 105 (60.0) n (%).
